Values of other authors in patent US20070213354A1, “Compositions and Methods for the Treatment of Multiple Sclerosis” (AmpliMed Corporation, priority 2006, published 2007).

Experiments:
neonatal rat myocytes = details: 1 hour drug concentration that reduces ATP/protein ratio to 50% of untreated control myocytes; read-out: IC50 Cardiotox; cited from earlier work
L1210 resistant = details: murine leukemia L1210 resistant, P-glycoprotein producing; MTT, continuous exposure; cited from earlier work
L1210 sensitive = details: murine leukemia L1210 sensitive to standard cytotoxic agents; MTT, continuous exposure; cited from earlier work

Row | SMILES | IC50 (neonatal rat myocytes) [nM] | IC50 (L1210 resistant) [nM] | IC50 (L1210 sensitive) [nM]
1 | O=C1c2cccc3cc4ccccc4c(c23)C(=O)N1CCN1CCNCC1 [2-(CH2)2—N-piperazinyl] | 6710 | 463 | 174
2 | COc1ccc2cc3cccc4c3c(c2c1)C(=O)N(CCN(C)C)C4=O [*10-OCH3] | 9100 | 52 | 21
3 | CSc1ccc2c3c(c4ccccc4cc13)C(=O)N(CCN(C)C)C2=O [*6-SCH3] | 3000 | 0.5 | 0.4
4 | CN(C)c1ccc(N2C(=O)c3cccc4cc5ccccc5c(c34)C2=O)cc1 [2-(p-N(CH3)2)—C6H5)] | 37300 | 1790 | 187
5 | CNCCN1C(=O)c2ccc(OC)c3cc4ccccc4c(c23)C1=O [2-(CH2)2NHCH3; 6-OCH3] | 8100 | 27 | 41
6 | CN(C)CCN1C(=O)c2c(NC(=O)C(C)(C)C)ccc3cc4ccccc4c(c23)C1=O [*4-NHCOC(CH3)3] | > 24600 | 172 | 862
7 | CN(C)CCN1C(=O)c2cc(N)cc3cc4ccccc4c(c23)C1=O [*5-NH2] | 1720 | 15 | 6
8 | CN1CCCC1CCN1C(=O)c2cccc3cc4ccccc4c(c23)C1=O (centres unmarked) [2-(CH2)2-(1-methyl-2-pyrrolidinyl)] | 7080 | 56 | 51
9 | O=C1c2cccc3cc4ccccc4c(c23)C(=O)N1CCNCCO [2-(CH2)2NH(CH2)2OH] | 943 | 41 | 18
10 | CN(C)CCN1C(=O)c2cccc3cc4ccc(F)cc4c(c23)C1=O [*10-F] | 456 |  | 8
11 | CN(C)CCN1C(=O)c2cccc3cc4cccc(N)c4c(c23)C1=O [*11-NH2] | 27100 | 678 | 678
12 | CN(C)CCN1C(=O)c2cc(NC(=O)C(C)(C)C)cc3cc4ccccc4c(c23)C1=O [*5-NHCOC(CH3)3] | 662 | 15 | 44
13 | CC(=O)Nc1ccc2cc3cccc4c3c(c2c1)C(=O)N(CCN(C)C)C4=O [*10-NHCOCH3] | 7790 | 219 | 49
14 | CN(C)CCOc1ccc2c3c(c4ccccc4cc13)C(=O)N(CCN(C)C)C2=O [*6-O(CH2)2N(CH3)2] | 5440 | 1 | 0.2
15 | COc1ccc2c3c4c(cccc4cc2c1)C(=O)N(CCN(C)C)C3=O [*9-OCH3] | < 2600 | 54 | 54
16 | CN(C)CCN1C(=O)c2cccc3cc4ccc(C#N)cc4c(c23)C1=O [*10-CN] | 105 | 13 | 15
17 | CN(C)CCN1C(=O)c2ccc(N)c3cc4ccccc4c(c23)C1=O [*6-NH2] | 1490 | 27 | 5
18 | CCSc1ccc2c3c(c4ccccc4cc13)C(=O)N(CCN(C)C)C2=O [*6-SC2H5] | 7740 | 5 | 6
19 | CC(=O)Nc1cccc2cc3cccc4c3c(c12)C(=O)N(CCN(C)C)C4=O [*11-NHCOCH3] | > 22500 | 2430 | 243
20 | Cc1c2ccccc2c2c3c(cccc13)C(=O)N(CCN(C)C)C2=O [*7-CH3] | 1680 | 70 | 34
21 | CN(C)CCN1C(=O)c2ccc(I)c3cc4ccccc4c(c23)C1=O [*6-I] | 43700 | 416 | 416
22 | Cc1ccc2c3c(c4ccccc4cc13)C(=O)N(CCN(C)C)C2=O [*6-CH3] | 989 | 27 | 7
23 | CN(C)CCN1C(=O)c2ccc(NCCO)c3cc4ccccc4c(c23)C1=O [*6-NH(CH2)2OH] | 1210 | 48 | 6
24 | COc1cccc2c3c4c(cccc4cc12)C(=O)N(CCN(C)C)C3=O [*8-OCH3] | 806 | 18 | 13
25 | CN(C)CCN1C(=O)c2c(Cl)ccc3cc4ccccc4c(c23)C1=O [*4-Cl] | 900 | 15 | 10
26 | CN(C)CCN1C(=O)c2ccc(N(C)C)c3cc4ccccc4c(c23)C1=O [*6-N(CH3)2] | 46600 | 96 | 23
27 | CN(C)CCN1C(=O)c2cccc3cc4c(N)cccc4c(c23)C1=O [*8-NH2] | > 81300 | 6780 | 6780
28 | Cc1ccc2cc3ccccc3c3c2c1C(=O)N(CCN(C)C)C3=O [*4-CH3] | 1360 | 68 | 54
29 | CC(=O)Nc1ccc2cc3ccccc3c3c2c1C(=O)N(CCN(C)C)C3=O [*4-NHCOCH3] | > 24300 | 560 | 608
30 | CN(C)CCNc1ccc2c3c(c4cccc(Cl)c4cc13)C(=O)N(CCN(C)C)C2=O [*6-NH(CH2)2N(CH3)2; 8-Cl] | 3230 | 7 | 3
